Experimental data published in patent US12391675B2, “NLRP3 modulators” (INNATE TUMOR IMMUNITY, INC., priority 2019, dated 2025).

How the values were obtained:
[1] = target: T1, NLRP3 (Homo sapiens, UniProt Q96P20); experiment: Measurement of IL-1β production in PMA-differentiated THP-1 cells (NLRP3 hIL1B EC50); assay type: cell-based
T1 construct: host or cells: PMA-differentiated THP-1 cells
Description: Measurement of IL-1β Production in PMA-Differentiated THP-1 Cells
THP-1 cells were purchased from the American Type Culture Collection and sub-cultured according to instructions from the supplier. Prior to experiments, cells were cultured in RPMI 1640 containing 10% heat inactivated FBS, penicillin (100 units/ml) and streptomycin (100 μg/ml), and maintained in log phase prior to experimental setup. Prior to the experiment THP-1 were treated with PMA (Phorbol 12-myristate 13-acetate) (10 μg/ml) for 24 hours. The day of the experiment the media was removed and attaching cells were treated with trypsin for 2 minutes, cells were then collected, washed with PBS (phosphate buffer saline), spin down, resuspended in 2% heat inactivated FBS with RPMI at a concentration of 1×10^6 cells/ml, and 100 μl was plated in a 96 well plate. Compounds were dissolved in dimethyl sulfoxide (DMSO) and added to the culture medium to achieve desired concentration (e.g. 100, 30, 10, 3, 1, 0.3 or 0.1 μM). Cells were incubated with compounds for 4 hours. Cell free supernatant was collected and the production of IL-1β was evaluated by ELISA. A vehicle only control was run concurrently with each experiment. Final DMSO concentration was 1%.
Measurement of IL-1β Production in PMA-Differentiated THP-1 Cells (Alternative Procedure)
THP-1 cells were purchased from the American Type Culture Collection and sub-cultured according to instructions from the supplier. Prior to experiments, cells were cultured in RPMI 1640 containing 10% heat inactivated FBS, penicillin (100 units/ml), streptomycin (100 μg/ml), HEPES (10 mM) and sodium pyruvate (1 mM) and maintained in log phase prior to experimental setup. Prior to the experiment, THP-1 cells were treated with PMA (Phorbol 12-myristate 13-acetate) (20 μg/ml) overnight. The day of the experiment, the media was removed and attached cells were treated with trypsin for 2 minutes, cells were then collected, washed with PBS (phosphate buffer saline), pelleted by centrifugation and resuspended in 2% heat inactivated FBS with RPMI at a concentration of 50,000 cells/well in a 384 well plate. Cell free supernatant was collected and the production of IL-1β was evaluated by ELISA. Compounds were dissolved in dimethyl sulfoxide (DMSO) and added to the culture medium to achieve desired concentration (e.g. 100, 30, 10, 3, 1, 0.3 or 0.1 μM). Cells were incubated with compounds for 2 hours. A vehicle only control was run concurrently with each experiment. Final DMSO concentration was 1%.
Measurement of IL-1β Production—hTRF Protocol (Second Alternative Procedure)
Serial dilutions of compounds in DMSO were added to low volume 384 well plates at 100 nl/well using an ECHO 550 acoustic dispenser (Labcyte) to achieve final starting concentration of 10 μM in assay.
THP-1 cells in RPMI (Gibco, 11875) media with 10% FBS at a density of 1×10^6 cell/ml in a T175 flask were treated with a final concentration of phorbol 12-myristate 13-acetate (PMA) (Sigma, P1585) of 50 ng/ml overnight at 37° C. at 5% CO2 for differentiation. Cells were harvested the next day after rinsing well wth dPBS using 0.5% trypsin. A cell solution was prepared of 1×10^6 cells/ml for 50,000 cells in 50 μl/well in RPMI media with 2% FBS. Cells were plated using a multichannel pipette onto the compound dilutions in Greiner, 384 well, black clear bottom tissue culture treated plates (781090). The plates were incubated in 37° C. incubator at 5% CO2 for 2 hours.
After the 2 hour incubation, the cell plates were spun in the centrifuge for 5 minutes at 1200 rpm. Using the Felix (CyBio), 8 μl of the supernatant was transferred to 384 well, low volume, white proxy plates. (Perkin Elmer, 6008230). A human IL1beta hTRF kit was used to analyze the supernatant (CISBIO, 62HIL1BPEG). The kit instructions were followed for preparing the IL1Beta standard curve and then the antibodies from the kit were diluted 1:40 rather than 1:20 as kit instructed. […]

[2] = target: T2, human TLR7 (Homo sapiens, UniProt Q9NYK1); experiment: In vitro human TLR7 binding reporter assay (HEK-Blue cells, NF-kB/AP1-inducible SEAP reporter); assay type: cell-based; details: HEK-Blue cells expressing TLR7, SEAP reporter; read-out: TLR7 agonist EC50
T2 construct: host or cells: human HEK-Blue cells co-expressing TLR7 and an NF-kB/AP1-inducible SEAP reporter
T2 sequence (Q9NYK1 27-1049): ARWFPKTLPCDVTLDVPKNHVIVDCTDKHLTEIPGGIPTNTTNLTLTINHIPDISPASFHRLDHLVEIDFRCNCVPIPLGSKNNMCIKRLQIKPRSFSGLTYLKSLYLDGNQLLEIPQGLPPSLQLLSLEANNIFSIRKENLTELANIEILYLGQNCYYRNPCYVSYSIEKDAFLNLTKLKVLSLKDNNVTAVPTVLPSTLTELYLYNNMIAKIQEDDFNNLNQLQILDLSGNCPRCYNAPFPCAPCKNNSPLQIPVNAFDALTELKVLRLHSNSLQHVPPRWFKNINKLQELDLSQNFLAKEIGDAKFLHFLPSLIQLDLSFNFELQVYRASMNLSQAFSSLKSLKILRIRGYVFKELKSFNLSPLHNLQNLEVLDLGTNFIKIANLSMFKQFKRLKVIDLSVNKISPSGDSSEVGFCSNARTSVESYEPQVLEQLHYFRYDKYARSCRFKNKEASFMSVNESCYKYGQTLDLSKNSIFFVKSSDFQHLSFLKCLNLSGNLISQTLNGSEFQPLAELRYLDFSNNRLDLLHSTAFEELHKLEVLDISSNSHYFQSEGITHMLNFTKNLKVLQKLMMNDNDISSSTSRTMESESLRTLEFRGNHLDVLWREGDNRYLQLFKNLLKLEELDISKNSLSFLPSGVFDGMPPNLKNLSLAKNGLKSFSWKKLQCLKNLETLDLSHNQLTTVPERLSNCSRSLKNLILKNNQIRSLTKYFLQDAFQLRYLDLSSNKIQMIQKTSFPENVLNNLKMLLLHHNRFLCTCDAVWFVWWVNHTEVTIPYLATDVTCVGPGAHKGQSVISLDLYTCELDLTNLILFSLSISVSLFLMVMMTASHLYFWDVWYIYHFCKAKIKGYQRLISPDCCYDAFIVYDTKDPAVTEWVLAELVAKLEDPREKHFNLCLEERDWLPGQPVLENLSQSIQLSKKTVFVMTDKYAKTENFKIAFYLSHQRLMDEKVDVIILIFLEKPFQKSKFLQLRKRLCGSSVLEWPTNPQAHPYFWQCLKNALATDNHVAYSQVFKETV
Description: In Vitro Human TLR7 and TLR8 Binding Reporter Assays
Logarithmically-growing human HEK-Blue cells co-expressing a TLR7 or TLR8 gene and a NF-kB/AP1-inducible SEAP (secreted embryonic alkaline phosphatase; Invivogen, San Diego, CA) reporter gene are added to individual wells of a 384-well plate (15,000 cells per 20 μL per well) and maintained for 24 h at 37° C., 5% CO2. Test compounds or DMSO are distributed to separate wells the next day using acoustic liquid handling technology (100 nL per well) and cells are subsequently incubated for 18 h at 37° C., 5% CO2. Cellular SEAP production is measured using an Envision plate reader instrument thirty minutes after adding freshly-made Quanti-Blue reagent (prepared by following manufacturer instructions; Invivogen, San Diego, CA) to the HEK-Blue TLR Nf-kB-SEAP cell reactions. All EC50 values (half-maximal effective concentration) are determined using proprietary data analysis software.

T1 sequence (Q96P20 whole entry): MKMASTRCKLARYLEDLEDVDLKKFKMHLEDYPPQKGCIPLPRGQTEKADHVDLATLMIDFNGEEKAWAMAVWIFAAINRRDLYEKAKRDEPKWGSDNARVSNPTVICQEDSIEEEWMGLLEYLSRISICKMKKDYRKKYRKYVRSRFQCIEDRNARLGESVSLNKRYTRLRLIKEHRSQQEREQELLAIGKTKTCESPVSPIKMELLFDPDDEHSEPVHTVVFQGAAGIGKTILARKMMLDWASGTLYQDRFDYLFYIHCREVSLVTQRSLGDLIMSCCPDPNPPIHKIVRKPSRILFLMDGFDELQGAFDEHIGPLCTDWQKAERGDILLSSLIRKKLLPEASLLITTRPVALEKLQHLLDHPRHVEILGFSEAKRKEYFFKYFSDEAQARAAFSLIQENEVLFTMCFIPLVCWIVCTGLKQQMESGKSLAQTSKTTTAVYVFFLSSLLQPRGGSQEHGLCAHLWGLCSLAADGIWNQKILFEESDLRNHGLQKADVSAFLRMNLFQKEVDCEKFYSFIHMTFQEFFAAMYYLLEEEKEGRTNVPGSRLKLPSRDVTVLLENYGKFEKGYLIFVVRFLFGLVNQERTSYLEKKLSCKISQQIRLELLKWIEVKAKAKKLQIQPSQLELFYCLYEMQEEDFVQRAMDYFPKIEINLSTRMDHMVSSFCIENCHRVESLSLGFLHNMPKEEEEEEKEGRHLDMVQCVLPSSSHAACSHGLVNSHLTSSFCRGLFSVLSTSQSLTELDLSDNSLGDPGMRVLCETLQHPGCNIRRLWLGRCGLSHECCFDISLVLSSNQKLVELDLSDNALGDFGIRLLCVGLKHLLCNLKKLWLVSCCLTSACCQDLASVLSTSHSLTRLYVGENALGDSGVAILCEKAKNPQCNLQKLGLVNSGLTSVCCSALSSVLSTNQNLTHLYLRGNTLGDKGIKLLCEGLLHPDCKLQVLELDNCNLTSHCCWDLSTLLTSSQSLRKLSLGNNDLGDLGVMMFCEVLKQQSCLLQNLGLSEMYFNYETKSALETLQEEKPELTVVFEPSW

Row | SMILES | EC50 [1] | EC50 [2]
1 | C=CC12CCC(CNc3cc(N)nc4cc(-c5ccn[nH]5)ccc34)(CC1)CO2 [Example 25, 7-(1H-pyrazol-3-yl)-N4-((1-vinyl-2-oxabicyclo[2.2.2]octan-4-yl)methyl)quinoline-2,4-diamine] | 2000 nM | < 50000 nM
2 | Nc1cc(NC23CC(CO)(C2)C3)c2ccc(-c3ccn[nH]3)cc2n1 [Example 16, (3-((2-amino-7-(1H-pyrazol-5-yl)quinolin-4-yl)amino)bicyclo[1.1.1]pentan-1-yl)methanol] | 130 nM | < 50000 nM
3 | Nc1nc(NC2CC3(CC3)C2)c2ccc(-c3cc[nH]n3)cc2n1 [Example 37] | 300 nM | 
4 | Nc1nc(N[C@H]2C[C@@H]3C[C@H]2[C@@H](O)C3)c2ccc(-c3ccn[nH]3)cc2n1 (single isomer, unassigned) [Example 45A] | 2120 nM | 
5 | Nc1cc(NC2COCCC23OCCO3)c2ccc(-c3cc[nH]n3)cc2n1 (centres unmarked) [Example 33, 7-(1H-pyrazol-3-yl)-N4-(1,4,8-trioxaspiro[4.5]decan-6-yl)quinoline-2,4-diamine] | 17400 nM | 
6 | Nc1nc(NC2CC23CC3)c2ccc(-c3cc[nH]n3)cc2n1 (centres unmarked) [Example 35] | 190 nM | 
7 | Nc1nc(NC2CC3(CC(O)C3)C2)c2ccc(-c3ccn[nH]3)cc2n1 (centres unmarked) [Example 3, 6-((2-amino-7-(1H-pyrazol-5-yl)quinazolin-4-yl)amino)spiro[3.3]heptan-2-ol] | 1000 nM | 
8 | COC(=O)C12CCC(CNc3cc(N)nc4cc(-c5cc[nH]n5)ccc34)(CC1)CC2 [Example 50, methyl 4-(((2-amino-7-(1H-pyrazol-3-yl)quinolin-4-yl)amino)methyl)bicyclo[2.2.2]octane-1-carboxylate] | 1730 nM | 
9 | Nc1nc(NC23CC(CO)(C2)C3)c2ccc(-c3ccn[nH]3)cc2n1 [Example 7] | 200 nM | 
10 | Nc1nc(N2C[C@H]3C[C@@H]2CO3)c2ccc(-c3cc[nH]n3)cc2n1 (single isomer, unassigned) [Example 10] | 1600 nM | 
11 | Nc1nc(NC2CC3CC(O)C2C3)c2ccc(-c3ccn[nH]3)cc2n1 (single isomer, unassigned) [Example 41B] | 960 nM | 
12 | Nc1nc(N[C@H]2[C@@H]3COC[C@@H]32)c2ccc(-c3ccn[nH]3)cc2n1 [Example 4] | 310 nM | 
13 | Nc1cc(N[C@H]2C[C@@H]3C[C@@H](O)[C@H]2O3)c2ccc(-c3ccn[nH]3)cc2n1 (single isomer, unassigned) [Example 32B] | 250 nM | 
14 | Nc1cc(N[C@H]2C3CCC(C3)[C@H]2CO)c2ccc(-c3ccn[nH]3)cc2n1 (single isomer, unassigned) [Example 18B] | 980 nM | 
15 | Nc1nc(NC2CC23CC3)c2ccc(-c3cc[nH]n3)cc2n1 (single isomer, unassigned) [Example 36A] | 85 nM | 
16 | Nc1cc(N[C@@H]2C[C@H]3C[C@@H]2[C@@H](O)C3)c2ccc(-c3ccn[nH]3)cc2n1 (racemic) [Example 46, rac-(1S,2S,4R,6R)-6-((2-amino-7-(1H-pyrazol-5-yl)quinolin-4-yl)amino)bicyclo[2.2.1]heptan-2-ol] | 1330 nM | 
17 | CC(C)(C)OC(=O)N1CCC2(CC1)CC2Nc1nc(N)nc2cc(-c3cc[nH]n3)ccc12 (single isomer, unassigned) [Example 28A] | 1940 nM | 
18 | Nc1cc(N[C@H]2C[C@@H]3CC[C@H]2O3)c2ccc(-c3ccn[nH]3)cc2n1 (racemic) [Example 15, rac-N4-((1R,2S,4S)-7-oxabicyclo[2.2.1]heptan-2-yl)-7-(1H-pyrazol-5-yl)quinoline-2,4-diamine] | 250 nM | 
19 | Nc1nc(N[C@@H]2C[C@H]3CC[C@]2(CO)O3)c2ccc(-c3ccn[nH]3)cc2n1 (racemic) [Example 8] | 3700 nM | 
20 | Nc1cc(NCC23CCC(CO)(CC2)OC3)c2ccc(-c3ccsc3)cc2n1 [Example 51, (4-(((2-amino-7-(thiophen-3-yl)quinolin-4-yl)amino)methyl)-2-oxabicyclo[2.2.2]octan-1-yl)methanol] | 1860 nM | 
21 | CC(C)(C)OC(=O)N1CCC2(CC1)CC2Nc1nc(N)nc2cc(-c3cc[nH]n3)ccc12 (single isomer, unassigned) [Example 28B] | 780 nM | 
22 | Nc1nc(N[C@H]2C[C@@H]3C[C@H]2C[C@H]3O)c2ccc(-c3ccn[nH]3)cc2n1 (single isomer, unassigned) [Example 43B] | 1110 nM | 
23 | Nc1nc(NCC2C[C@H]3CC[C@@H]2CC3)c2ccc(-c3cc[nH]n3)cc2n1 (some centres unmarked) [Example 39] | 860 nM | 
24 | Nc1nc(N[C@@H]2C[C@@H]3CC[C@H]2O3)c2ccc(-c3ccn[nH]3)cc2n1 (racemic) [Example 29, rac-N4-((1R,2R,4S)-7-oxabicyclo[2.2.1]heptan-2-yl)-7-(1H-pyrazol-5-yl)quinazoline-2,4-diamine] | 500 nM | 
